This data set can be described thus: Pharmacokinetic study GW01-0706 under maximal use conditions (serum imiquimod). The format is in vivo, human. How it is done: An open label, single center, non-randomized pharmacokinetic (PK) study in adult subjects diagnosed with actinic keratosis (“AK”) is conducted. […] The study is conducted under maximal use conditions (dose, duration, disease severity, and application areas) in a population that had at least 10 AK lesions in the application area. The application area is the entire face (exclusive of nares, vermilion, periocular areas and ears) and/or the entire balding scalp; areas estimated as approximately 200 cm^2. If the area of the entire balding scalp is less than 200 cm^2, the forehead area is included in order for the entire treatment area to be approximately 200 cm^2.
Subjects stay at the study center overnight at treatment initiation (Day 1, 1st dose), and end of treatment (Day 21, last dose) visits for collection of a 24-hour serum PK profile. […] Single serum samples for PK analyses of trough concentrations are obtained at Day 7 and Day 14 (in the morning prior to dosing).
Adverse events, study medication accountability, and dosing compliance are reviewed at each visit. Routine clinical laboratory assessments (serum chemistry, hematology and urinalysis) are performed at Screening, Day 1 (predose), and the end of study visits.
Trough serum concentrations are obtained on Days 7, 14, 21, and 22. The trough concentrations on Days 7 and 14 are obtained during outpatient treatment while the trough concentrations on Days 21 and 22 are obtained while the subjects are dosed in the clinical research facility.

Where [1] appears, read: Steady-State (Day 21), 3.75% imiquimod cream 2 packets daily.

Like-named read-outs stand apart in the source and are kept apart here.

In general, Cmax refers to the highest concentration seen after dosing. Regarding `CC(C)Cn1cnc2c(N)nc3ccccc3c21` [imiquimod, 1-isobutyl-1H-imidazo[4,5-c]-quinolin-4-amine], the “Imiquimod trough concentration, Geometric LS Mean Reference” value (Day 21/14 comparison (Reference = Day 14), subjects with paired, non-zero data, 3.75% imiquimod cream 2 packets daily) amounted to 0.1344 ng/mL. Besides, the “Imiquimod trough concentration, Geometric LS Mean Test” value (Day 21/14 comparison (Test = Day 21), subjects with paired, non-zero data, 3.75% imiquimod cream 2 packets daily) was 0.1791 ng/mL. For the same compound, under setting [1], the “λz, Geometric Mean” value was 0.027 h⁻¹; the “λz, Mean” value came to 0.029 h⁻¹; the “λz, Median” value was 0.0271 h⁻¹. Moreover, under “human, topical”, the concentration at 7 day (trough) was 0.128 ng/mL, the concentration at 14 day (trough) was 0.139 ng/mL, the concentration at 21 day (trough) was 0.179 ng/mL and the concentration at 22 day (trough) was 0.167 ng/mL. The AUC(0-t) (human, topical, Steady-State (Day 21), 3.75% imiquimod cream 2 packets daily, read-out: AUC0-24, Geometric Mean) is 5.03 ng·h/mL. Besides, where the note is “human, topical, Steady-State (Day 21), 3.75% imiquimod cream 2 packets daily, read-out: AUC0-24, Mean”, the AUC(0-t) is 5.97 ng·h/mL. Besides, the AUC(0-t) (human, topical, Steady-State (Day 21), 3.75% imiquimod cream 2 packets daily, read-out: AUC0-24, Median) worked out at 7.02 ng·h/mL. Moreover, the Cmax (human, topical, Steady-State (Day 21), 3.75% imiquimod cream 2 packets daily, read-out: Cmax, Geometric Mean) stood at 0.274 ng/mL. Further, the Cmax (human, topical, Steady-State (Day 21), 3.75% imiquimod cream 2 packets daily, read-out: Cmax, Mean) turned out to be 0.323 ng/mL. Under “human, topical, Steady-State (Day 21), 3.75% imiquimod cream 2 packets daily, read-out: Cmax, Median”, the Cmax was determined as 0.35 ng/mL.

Source of the values: US20110319811A1 (priority 2010, published 2011).
